In US7326680B1, “Uterine contraction inhibitors” (Shionogi & Co., Ltd., priority 1999, dated 2008):
pIC50: −log10 of the molar value. Bridge positions count the residues as written; N and C are the ends. Ends that are not written are not given here.

What was measured:
[1] = system: uterine strips; assay: Stimulation of contraction of uterine strips from rats not treated with estrogen; assay type: cell-based, rat; conditions: 1 nM oxytocin, 1 μM PGF2α or 10 nM bradykinin
Method: (§1) In another experiment, rats without injection of 17β-estradiol were used. The effect of 100 nM AM on uterine contraction induced by 10 nM bradykinin, 1 nM oxytocin, or 1 μM PGF2α was tested in the presence or absence of 1 μM AM[22-52] or 1 μM CGRP[8-37].

[2] = system: spontaneous myometrial contraction of rat uterine strips; assay: Spontaneous contraction of isolated uterine strips from 17β-estradiol-treated female rats (isotonic transducer); assay type: cell-based; conditions: for effect on the contraction inhibitory effect of 1 to 100 nM AM (spontaneous contraction): 1 μM preliminary addition; for effect of the antagonist per se on spontaneous contraction: 1 μM, preliminary addition (15 min preincubation)
Method: 1 μg of 17β-estradiol in 0.2 ml of 30% ethanol was subcutaneously injected to 10 to 12 week old female rats.
On the following day, the rats were sacrificed by hammering their heads. Thereafter, the rats were decapitated, followed by exsanguination. The uteri were isolated from the rats. Each isolated uterus was cut into four fragments a to d (FIG. 1(A)). Portions of each strip to which blood vessels were attached were cut off, thereby obtaining uterine strips (FIG. 1(B)).
The effect of AM on the rat uterus was examined by measuring contractions of the uterine strips using an isotonic transducer TD-112S (manufactured by Nippon Kohden Corporation) where the tension was 1 g.
While the uterine strip was immersed in 30 ml of a modified Krebs-Ringer bicarbonate (KRB) solution with glucose) (hereinafter simply referred to as “modified KRB solution”), the uterine strip was attached to the isotonic transducer. The composition of the modified KRB solution is as follows: 122 mM NaCl, 26 mM NaHCO3, 5 mM KCl, 1 mM MgSO4.7H2O, 0.03 mM EDTA-2Na, 2.4 mM CaCl2, and 11 mM glucose; pH 7.4).
(§2) Myometrial contraction was continuously measured. After spontaneous rhythm of the uterine muscle was confirmed to be constant, 30 μl of 10^−4 M AM (experimental sample) or distilled water (control sample) was added to the respective modified KRB solution with glucose, where the concentration of AM was 100 nM. 30 minutes after the addition of AM or distilled water, 300 μl of 4.5 M KCl was added to make a KCl concentration of 45 mM.
In a manner similar to that of Example 1, uterine strips were prepared, and attached to an isotonic transducer in a modified KRB solution. Myometrial contraction was continuously measured. After it was confirmed that the spontaneous rhythm of uterine muscle became constant, 30 μl of 1×10^−6, 2×10^−6, 7×10^−6, 2×10^−5, or 7×10^−5 M AM (experimental samples), or distilled water (control sample) was added to the modified KRB solution at time 0 min (initial addition), 5 min later, 12 min later, 22 min later, and 32 min later, where AM concentrations were 1, 3, 10, 30, and 100 nM, respectively. Thereafter, after 45 minutes from the initial addition of AM or distilled water, 300 μl of 4.5 M KCl was added to the solution to be a KCl concentration of 45 mM.
8 to 12 weeks old female rats were used to prepare uterine strips in a manner similar to that of Example 1.
Thereafter, the uterine strip was placed in a tissue chamber filled with 30 ml of a modified KRB solution with aeration of 95% O2/5% CO2 at 37° C. to measure contraction of the uterine strip in a manner similar to that of Example 1. After 40 minutes of equilibrium, the uterine strip was preincubated for 15 minutes in the presence or absence of 1 μM AM[22-52] or 1 μM CGRP[8-37]. Thereafter, AM was added to the modified KRB solution in the tissue chamber to gradually increase the AM concentration from 1 nM to 100 nM, exposing the uterine strip to AM.

[3] = system: bradykinin-induced contraction of rat uterine strips; assay: Bradykinin-induced contraction of isolated rat uterine strips; assay type: cell-based; conditions: 10 nM bradykinin; for effect on the inhibitory effect of AM on bradykinin-induced contraction: preliminary addition of 1 μM antagonist
Method: In a manner similar to that of Example 1, uterine strips were prepared and attached to an isotonic transducer in a modified KRB solution. At the time when 10 nM bradykinin (Peptide Institute, Inc.) was added to the modified KRB solution, myometrial contraction was continuously measured. 20 minutes after the addition of bradykinin, 100 nM AM or distilled water was further added.
as §1
(§3) In all measurements, the uterine strips were eventually contracted due to 45 mM KCl depolarization to confirm responses of the myometrium. The results are shown in FIGS. 6(a) to 6(f) and FIGS. 7(a) to 7(e).

[4] = system: galanin-induced tonic contraction of the uterus; conditions: Reference 7; cited from earlier work
[5] = system: PGF2α-induced contraction of rat uterine strips; assay: PGF2α-induced contraction of isolated rat uterine strips; assay type: cell-based; conditions: 100 nM AM, 1 μM PGF2α, rats not treated with estrogen
Method: as §1, with “CGRP[8-37]. In all measurements, the uterine strips were eventually contracted due to 45 mM KCl depolarization to confirm responses of the myometrium. The results are shown in FIGS. 6(a) to 6(f) and FIGS. 7(a) to 7(e).” for “CGRP[8-37].”

[6] = system: muscle contraction due to activation of voltage-dependent Ca channels (45 mM KCl); assay: 45 mM KCl depolarization-induced contraction of rat uterine strips; assay type: cell-based; conditions: 100 nM AM, KCl added 30 min after AM
Method: as §2, §3

[7] = system: oxytocin-induced contraction of rat uterine strips; assay: Oxytocin-induced contraction of isolated rat uterine strips; assay type: cell-based; conditions: 100 nM AM, 1 nM oxytocin, rats not treated with estrogen
Method: as §1, with “CGRP[8-37]. In all measurements, the uterine strips were eventually contracted due to 45 mM KCl depolarization to confirm responses of the myometrium. The results are shown in FIGS. 6(a) to 6(f) and FIGS. 7(a) to 7(e).” for “CGRP[8-37].”

Molecule: CC[C@H](C)[C@@H]1NC(=O)[C@H](Cc2ccc(O)cc2)NC(=O)[C@@H](N)CSSC[C@@H](C(=O)N2CCC[C@H]2C(=O)N[C@@H](CC(C)C)C(=O)NCC(N)=O)NC(=O)[C@H](CC(N)=O)NC(=O)[C@H](CCC(N)=O)NC1=O [oxytocin]
- stimulation of uterine contraction [1]: significantly stimulated contraction

Molecule: AM[22-52]: an antagonist for an AM receptor (TVQKLAHQIYQFTDKDKDNVAPRSKISPQGY; ends and bridges not checked; UniProt P35318 116-146, looked up, fragment) [reference compound]
- effect on the contraction inhibitory effect of 1 to 100 nM AM (spontaneous contraction) [2]: substantially completely prevents
- effect of the antagonist per se on spontaneous contraction [2]: had no effect
- effect on the inhibitory effect of AM on bradykinin-induced contraction ([3]; 100 nM AM): eliminated

Molecule: CGRP[8-37]: an antagonist for a CGRP receptor (VTHRLAGLLSRSGGVVKNNFVPTNVGSKAF; ends and bridges not checked; UniProt P06881 90-119, looked up, fragment) [reference compound]
- effect on the contraction inhibitory effect of 1 to 100 nM AM (spontaneous contraction) [2]: substantially completely prevents
- effect of the antagonist per se on spontaneous contraction [2]: had no effect
- effect on the action of AM on galanin-induced tonic contraction [4]: eliminated
- effect on the inhibitory effect of AM on bradykinin-induced contraction ([3]; 100 nM AM): eliminated

Molecule: YRQSMNQGSRSTGCRFGTCTMQKLAHQIYQFTDKDKDGMAPRNKISPQGY-NH2 (disulfide 14-19; C-terminus assumed) [AM]
- effect on contraction induced by PGF2α [5]: almost no effect
- effect on spontaneous myometrial contraction ([2]; 100 nM AM, Example 1, FIGS. 2(c), 2(d)): significantly inhibited
- effect on spontaneous myometrial contraction, cumulative concentrations ([2]; 1, 3, 10, 30, 100 nM AM, Example 2, FIGS. 3(a), 3(b)): inhibited by the addition of AM in a concentration-dependent manner
- pIC50 ([2]; AM 1 to 100 nM, estradiol-treated rats, Example 4, read-out: IC50 of inhibition of spontaneous contraction): 7.64
- reversibility of the inhibitory effect on spontaneous contraction ([2]; washing out and exchanging the modified KRB solution after 100 nM AM): could be reversed
- effect on contraction caused by 45 mM KCl [6]: does not affect
- concentration at which galanin-induced tonic contraction of the uterus was inhibited [4]: ≥ 5 µM
- effect on bradykinin-induced contraction ([3]; 100 nM AM added 20 min later, estradiol-treated rats, Example 3): inhibited
- effect on bradykinin-induced contraction ([3]; 100 nM AM, rats not treated with estrogen, Example 4): completely blocked
- effect on contraction induced by oxytocin [7]: almost no effect

Molecule: prostaglandin F2α [PGF2α]
- stimulation of uterine contraction [1]: significantly stimulated contraction
